# According to paper PMC5131319, “Occurrence, temporal trends, and half-lives of perfluoroalkyl acids (PFAAs) in occupational workers in China” (Scientific Reports, 2016):
# Values joined by “and” are separate entries in the source; they are usually repeats but may differ in a detail not shown here. Identical values can stand only once.
# Experiments:
# [1] = PFAA concentration in serum of occupational workers (HPLC-ESI/MS/MS); type: in vivo, human; design: Serum PFAA level: unit: ng/mL
# Procedure: The selected fluorochemical plant (Henxin Chemical Plant) in this study is one of the largest producers of PFOS-related chemicals in China and is located in Yingcheng, Hubei province. Perfluoroalkyl sulfonic acids (PFSAs) and perfluorotertiary amines are synthesized through an electro-chemical fluorination (ECF) process. We collected paired serum and urine samples from the occupational workers in the plant for five consecutive years, and the sampling activities were carried out in Nov. 2008, Nov. 2009, Nov. 2010, Dec. 2011, and Dec 2012, respectively. The Medical Research Ethics Committee, School of Medicine, Jianghan University, approved the ethics of this study, and all methods were performed in accordance with the relevant guidelines and regulations, moreover, all volunteers gave written informed consent. Demographic information of the donors, including gender, age, length of service, and work assignment, was collected with a questionnaire (Table S1). The sampled population included a total of 302 occupational workers, of which there were 89 female and 213 male participants. In total, 302 serum and 274 urine samples were collected.
# The participants were told not to eat breakfast before the sampling, and morning urine samples and blood samples were collected. Serum was separated from the blood by centrifugation at 1100 × g at 4 °C for 10 min and then placed on ice. Serum samples were then transferred to our laboratory on the same day and stored in polypropylene containers at −20 °C until analysis.
# All pre-treatment methods and instrument analysis of PFAAs in serum and urine samples are based on previous studies with minor modifications (see Supplementary Information)[3][31]. Based on the PFAA profiles in environmental matrices around the same plant in our previous study, only 3 main PFAAs, PFHxS, PFOA, and PFOS, were analyzed in the obtained serum and urine samples. Instrumental analysis of the PFAAs was performed by a HPLC-ESI/MS/MS system (HPLC: Waters 2695, MS: Waters Quattro Premier XE). The limits of detection (LODs) of PFHxS, PFOA, and PFOS were 0.020, 0.063, and 0.018 ng mL^−1 for serum samples and 0.008, 0.025, and 0.007 ng mL^−1 for urine samples, respectively. A procedural blank was performed for every batch of seven samples, and all of the blank levels were below the LODs. […] Details of quality assurance and quality control of the chemical analysis can be found in the Supplementary Information.
# [2] = Half-life estimated by daily clearance rates (first-order model, k = Cltotal/Vd); type: in vivo, human
# Excerpt: Olsen et al.[21] found linear relationship between the logarithm of serum PFAAs concentration and time, and a first order model was adopted to estimate the half-lives of PFAAs. The elimination of PFAAs in humans was also described with the following equation: […]
# If we set C(t) as 1/2C0, then the half-life
# where k is the elimination rate constant. We calculated k using two approaches in the present study. In the first approach, k is defined as Cltotal/Vd, where Vd stands for the volume of distribution of PFAAs in the human body. Cltotal represents the total daily PFAAs clearance in the human body; for men and women older than 50, it refers to renal clearance, while for young women, it is defined as the sum of menstrual clearance and renal clearance. To keep consistency with other studies, Vd of PFOS and PFHxS were set at 230 mL kg^−1, and Vd of PFOA was set at 170 mL kg^−1 in this study. In the second approach, k is defined as the average annual decline rates of PFAAs in workers who participated in this study.
# We used a first order model to estimate the half-lives of PFAAs in workers (Eq (2)). k was defined as […], where Cltotal referred to renal clearance for men and women older than 50 and to the sum of menstrual clearance and renal clearance for young women. According to Eq (2), the half-lives of PFHxS, PFOA, and PFOS for the occupational workers tested ranged from 0.51–3799 years, 0.44–3663 years, and 0.76–30475 years, with GM and median values of 14.7 and 11.7, 4.1 and 4.0, 32.6 and 21.6 years, respectively (Table 2). […] The GM values of the half-lives of PFHxS, PFOA, and PFOS for men here were 19.9, 4.7, and 60.9 years, respectively, while those for women were 7.5, 3.1, and 8.0 years, respectively. The half-lives estimated by the limited clearance route information could be considered as the upper limits for PFAAs. It seemed likely that the unrealistically long half-life estimates derived from the urinary data were actually evidence of the contribution of fecal elimination to the clearance of these chemicals. The extremely long half-lives of PFAAs, such as 3799 years for PFHxS, 3663 years for PFOA, and 30475 years for PFOS, were caused by the application of LOD/2 instead of ND in workers’ urine samples. The geometric mean or median value of the PFAAs half-lives can better reflect the actual situation.
# [3] = Fabric finishing agent department, N 8
# [4] = Female workers, number 71, menstrual clearance added to renal clearance
smiles,measurement,setting,value
"O=S(=O)(O)C(F)(F)C(F)(F)C(F)(F)C(F)(F)C(F)(F)C(F)(F)C(F)(F)C(F)(F)F [PFOS, perfluorooctanesulfonate]","Serum concentration, GM","[1]; 46 workers sampled at least three times, 2008",1751 ng/mL
same,"Serum concentration, GM","[1]; 46 workers sampled at least three times, 2009",1095 ng/mL
same,"Serum concentration, GM","[1]; 46 workers sampled at least three times, 2012",2580 ng/mL
same,"Serum concentration, mean","[1]; All workers, N 302",5624 ng/mL
same,"Serum concentration, range","[1]; All workers, N 302",50.3 to 118000 ng/mL
same,Serum PFAA level,"[1]; Electrolytic Department, length of service 1-3 years",1827
same,Serum PFAA level,"[1]; Electrolytic Department, length of service < 1 year",772
same,Serum PFAA level,"[1]; Electrolytic Department, length of service >3 years",1393
same,"Serum concentration, mean","[1]; Electrolytic department, N 74",1909 ng/mL
same,"Serum concentration, median","[1]; Electrolytic department, N 74",1541 ng/mL
same,"Serum concentration, range","[1]; Electrolytic department, N 74",234 to 8501 ng/mL
same,"Serum concentration, mean",[1]; [3],514 ng/mL
same,"Serum concentration, median",[1]; [3],267 ng/mL
same,"Serum concentration, range",[1]; [3],103 to 1890 ng/mL
same,Serum PFAA level,"[1]; Management Office, length of service 1-3 years",641
same,Serum PFAA level,"[1]; Management Office, length of service < 1 year",140
same,Serum PFAA level,"[1]; Management Office, length of service >3 years",728
same,"Serum concentration, mean","[1]; Management office, N 92",1144 ng/mL
same,"Serum concentration, median","[1]; Management office, N 92",616 ng/mL
same,"Serum concentration, range","[1]; Management office, N 92",50.3 to 7910 ng/mL
same,Serum PFAA level,"[1]; Research Building, length of service 1-3 years",888
same,Serum PFAA level,"[1]; Research Building, length of service < 1 year",318
same,Serum PFAA level,"[1]; Research Building, length of service >3 years",890
same,"Serum concentration, mean","[1]; Research building, N 27",1195 ng/mL
same,"Serum concentration, median","[1]; Research building, N 27",736 ng/mL
same,"Serum concentration, range","[1]; Research building, N 27",101 to 7450 ng/mL
same,Serum PFAA level,"[1]; Sulfonation Department, length of service 1-3 years",5463
same,Serum PFAA level,"[1]; Sulfonation Department, length of service < 1 year",5174
same,Serum PFAA level,"[1]; Sulfonation Department, length of service >3 years",7756
same,"Serum concentration, mean","[1]; Sulfonation department, N 101",14002 ng/mL
same,"Serum concentration, median","[1]; Sulfonation department, N 101",5544 ng/mL
same,"Serum concentration, range","[1]; Sulfonation department, N 101",416 to 118000 ng/mL
same,"Serum concentration, geometric mean",[1]; all occupational workers,1677 ng/mL
same,Average serum concentration (Average ± SD),"[1]; female workers, n 89","2,221 ± 4,791 ng mL^−1"
same,Average serum concentration (Average ± SD),"[1]; male workers, n 213","7,040 ± 15382 ng mL^−1"
same,Serum concentration below which 85 percent of the population lies,"[1]; present study, workers",6775 ng/mL
same,Serum PFOS concentration,"[1]; serum, sampling year 2008, individual occupational workers",853 ng/mL and 83 ng/mL and 463 ng/mL and 635 ng/mL and 357 ng/mL and 25000 ng/mL and 4570 ng/mL and 4540 ng/mL and 460 ng/mL and 3220 ng/mL and 4170 ng/mL and 3160 ng/mL and 2690 ng/mL and 650 ng/mL and 620 ng/mL and 250 ng/mL and 3580 ng/mL and 3030 ng/mL and 1770 ng/mL and 5220 ng/mL and 1970 ng/mL and 3940 ng/mL and 2600 ng/mL and 8430 ng/mL and 7450 ng/mL and 3800 ng/mL and 1450 ng/mL and 1280 ng/mL
same,"Serum concentration, GM",[1]; workers with service length 1–3 years,1861 ng/mL
same,"Serum concentration, GM",[1]; workers with service length less than 1 year,782 ng/mL
same,"Serum concentration, GM",[1]; workers with service length more than 3 years,1876 ng/mL
same,"Half-life estimated through daily elimination, GM",[2]; [4],8.0 years
same,"Half-life estimated through daily elimination, Max",[2]; [4],15.1 years
same,"Half-life estimated through daily elimination, Median",[2]; [4],9.4 years
same,"Half-life estimated through daily elimination, Min",[2]; [4],0.76 years
same,"Half-life estimated through daily elimination, Min","[2]; Male workers, number 136, renal clearance",2.7 years
same,"Half-life estimated through daily elimination, Min","[2]; Total workers, number 207",0.76 years
